Assay results published in patent publication US8476051B2, “Thermostable alcohol dehydrogenase derived from Thermococcus guaymasensis” (priority 2008, dated 2013).
“Also recorded” adds a separate entry of the source. Like-named read-outs stand apart in the source and are kept apart here. Marks after values point to notes of the source that are not given here.

Assays:
T. guaymasensis ADH [1] = target: T1, T. guaymasensis ADH (Thermococcus guaymasensis, UniProt F8S123); assay: Substrate specificity, aldehyde/ketone reduction (standard enzyme assay); format: biochemical; conditions: aldehydes or ketones 6 mM; 100% = 2-butanone; 0.2 mM NADPH, pH 7.5, 80° C.
Description: (§1) The purified enzyme (0.25 μg) initiated the enzyme assay. […] The protein concentrations of all samples were determined using the Bradford method and bovine serum albumin served as the standard protein (Bradford 1976).
(§2) The effect of pH on the enzyme activities was determined over a range of 5.5-11.4. The buffers (100 mM) used were phosphate (pH 5.5-8.0), EPPS (8.0-9.0), glycylglycine (9.0-9.7), and CAPS (9.7-11.4). The effect of the temperature on the enzyme activity was examined at temperatures from 30 to 95° C. Enzyme thermostability was determined by incubating the enzyme in sealed serum bottles at 80° C. and 95° C., respectively. Residual activity was assayed at various time intervals under the standard assay conditions. Substrate specificity was determined using primary and secondary alcohols (50 mM), diols and polyols (50 mM), or aldehydes and ketones (6 mM) under standard assay conditions.

T. guaymasensis ADH [2] = target: T1, T. guaymasensis ADH; assay: Substrate specificity, alcohol oxidation (standard enzyme assay); format: biochemical; conditions: for Relative activity (alcohol oxidation): alcohols 50 mM, 100% = 2-butanol, 0.4 mM NADP^+, pH 10.5, 80° C.
Description: as §1, §2

C[C@H](O)[C@@H](C)O = assay: purified protein, by the assay type; conditions: other: co-substrate NADP^+ (0.4 mM); 80.0 °C
C[C@@H](O)[C@@H](C)O = assay: purified protein, by the assay type; conditions: other: co-substrate NADP^+ (0.4 mM); 80.0 °C
T. guaymasensis ADH [3] = assay: Effect of metal ions on enzyme activity (2-butanone reduction); format: biochemical, Thermococcus guaymasensis; conditions: up to 100 μM in the assay mixture
Description: as §2
Metal ions were added in the enzyme assay mixture at a final concentration of 100 μM.

T. guaymasensis ADH [4] = target: T1, T. guaymasensis ADH; assay: Stereoselective conversion between acetoin and 2,3-butanediol (chiral GC); format: biochemical
Description: All the reactions were carried out at 30° C. for 24 hours unless specified. After that, the reaction mixture (1 ml) was extracted with 1 ml ethyl acetate or dichloride methane with shaking on a Gyrotory water bath shaker model G76 (New Brunswick Scientific Co., INC., NJ, USA) at 350 rpm for 30 min (room temperature). The stereoselectivity of the purified enzyme was determined using the Shimadzu GC-14A gas chromatography equipped with a CP-Chirasil-Dex CB column (0.25 mm ID×25 m length, Varian Inc., Palo Alto, Calif., USA). The following GC operating conditions included the FID detector (250° C.) at a sensitivity range of 10 and helium as the carrier gas at a linear velocity of 40 cm s^−1. […] The reaction mixture after extraction (0.5 μl) was directly applied onto the injector (200° C.) for each assay. The peak areas were quantitated using specific external standards.

[5] = substrate: CC(=O)C(C)=O; assay: purified protein, by the assay type; conditions: other: co-substrate NADPH (0.2 mM); 80.0 °C
[6] = substrate: CCC(C)=O; assay: purified protein, by the assay type; conditions: other: co-substrate NADPH (0.2 mM); 80.0 °C
[7] = substrate: CC(=O)C(C)O; assay: purified protein, by the assay type; format: biochemical, Thermococcus guaymasensis; conditions: other: co-substrate NADPH (0.2 mM); 80.0 °C
Description: Apparent values of Km and Vmax were calculated using the curve fittings of SigmaPlot (Systat Software Inc., San Jose, Calif., USA).

[8] = Oxygen sensitivity (residual activity after exposure to air); format: physicochemical; conditions: exposed to air for a week
Description: The effect of oxygen on enzyme activity was investigated by exposing the enzyme samples in the air at room temperature and determining the residual activity after oxygen exposure. The exposure was performed in the presence or absence of DDT and SDT. The residual activities of each sample at different time intervals were tested parallelly under the standard assay conditions.

[9] = ADH specific activity (spectrophotometric enzyme assay); format: biochemical
Description: as §1
The reaction was initiated by adding enzymes.

[10] = oxidation, 50 mM substrate, 500 mM acetone, 1 mM NADP^+, 30° C., 24 hours

For `CC=O` [Acetaldehyde], the “Relative activity (aldehyde/ketone reduction)” value (T. guaymasensis ADH [1]) was 36 ± 4.2%.

For `CC(=O)C(C)=O` [Diacetyl], the “Relative activity (aldehyde/ketone reduction)” value (T. guaymasensis ADH [1]) was 134.8 ± 5.9%.

For `CO` [Methanol], the “Oxidation of the substrate by the enzyme (in words)” value (from here on “Oxidation of the substrate”) (T. guaymasensis ADH [2]) was “did not oxidize” and the “Relative activity (alcohol oxidation)” value (T. guaymasensis ADH [2]) was 0%.

In the case of `CC(O)CC(C)O` (stereo not shown) [2,4-Pentanediol], the “Relative activity (alcohol oxidation)” value (T. guaymasensis ADH [2]) is reported as 9.2 ± 0.1%.

In the case of `CCC(O)CO` (stereo not shown) [1,2-Butanediol], the “Relative activity (alcohol oxidation)” value (T. guaymasensis ADH [2]) is reported as 25.6 ± 2.3%.

With `OCC(O)CO` [Glycerol] the “Relative activity (alcohol oxidation)” value (T. guaymasensis ADH [2]) was 0.2 ± 0.1%.

For `CCO` [Ethanol], the “Relative activity (alcohol oxidation)” value (T. guaymasensis ADH [2]) was 5.7 ± 0.3%.

“T. guaymasensis ADH (Thermococcus guaymasensis)” gave a Km (C[C@H](O)[C@@H](C)O) of 19300 µM, a Vmax (C[C@H](O)[C@@H](C)O) of 1430 µmol/min/mg and a kcat (C[C@H](O)[C@@H](C)O) of 952 s⁻¹. It also gave a kcat/Km (C[C@H](O)[C@@H](C)O) of 49000 M⁻¹ s⁻¹, a Km (C[C@@H](O)[C@@H](C)O) of 15200 µM and a Vmax (C[C@@H](O)[C@@H](C)O) of 1110 µmol/min/mg. For the same molecule, the kcat (C[C@@H](O)[C@@H](C)O) was 740 s⁻¹ and the kcat/Km (C[C@@H](O)[C@@H](C)O) was 49000 M⁻¹ s⁻¹.

In the case of 1-Propanol, the “Relative activity (alcohol oxidation)” value (T. guaymasensis ADH [2]) is reported as 15.1 ± 0.3%.

In the case of `CCCC(O)CO` (stereo not shown) [1,2-Pentanediol], the “Relative activity (alcohol oxidation)” value (T. guaymasensis ADH [2]) is reported as 4.7 ± 0.3%.

With `CCCC(C)O` (stereo not shown) [2-Pentanol] the “Relative activity (alcohol oxidation)” value (T. guaymasensis ADH [2]) was 66.3%.

For `C[C@@H](O)[C@H](N)C(=O)O` [L-threonine], the “Oxidation of the substrate” value (T. guaymasensis ADH [2]) was “no activity; also recorded: did not catalyze” and the “Oxidation of the substrate” value (T. guaymasensis ADH [2]; listed as threonine) was “did not catalyze”.

For `CC(C)=O` [Acetone], the “Relative activity (aldehyde/ketone reduction)” value (T. guaymasensis ADH [1]) was 149.4 ± 2.8%.

For `CC(O)C(C)O` (stereo not shown) [2,3-Butanediol], the “Relative activity (alcohol oxidation)” value (T. guaymasensis ADH [2]) was 78.7 ± 3.4%.

In the case of `CCCCCO` [1-Pentanol], the “Relative activity (alcohol oxidation)” value (T. guaymasensis ADH [2]) is reported as 0.8 ± 0.2%.

With `[Zn+2]` [Zn^2+] the “Effect on enzyme activity (butanol formation)” value (T. guaymasensis ADH [3]) was “inhibited” and the “Effect on enzyme activity (butanol formation)” value (T. guaymasensis ADH [3]; listed as zinc) was “blocked”.

In the case of `CCCCO` [1-Butanol], the “Relative activity (alcohol oxidation)” value (T. guaymasensis ADH [2]) is reported as 5.1 ± 0.2%.

With `CCCC(C)=O` [2-Pentanone] the “Relative activity (aldehyde/ketone reduction)” value (T. guaymasensis ADH [1]) was 86.2 ± 3.1%.

For `CCCC=O` [Butyraldehyde], the “Relative activity (aldehyde/ketone reduction)” value (T. guaymasensis ADH [1]) was 112.4 ± 11.9%.

With `CC(O)CCO` (stereo not shown) [1,3-Butanediol] the “Relative activity (alcohol oxidation)” value (T. guaymasensis ADH [2]) was 35.4 ± 1.1%.

For `CC(=O)C(C)O` (racemic) [Acetoin], the “Relative activity (aldehyde/ketone reduction)” value (T. guaymasensis ADH [1]) was 93 ± 3.2%, the “Oxidation of the substrate” value (T. guaymasensis ADH [2]) was “could not oxidize; also recorded: cannot be oxidized” and the “ee of (2R,3R)-2,3-butanediol and meso-2,3-butanediol over (2S,3S)-(+)-2,3-butanediol” value (T. guaymasensis ADH [4]; reduction, 50 mM substrate, 500 mM isopropanol, 1 mM NADPH, 30° C., 24 hours) was greater than 99%.

With `CCC(C)O` (stereo not shown) [2-Butanol] the “Activity meant by relative activity of 100% in alcohol oxidation” value (T. guaymasensis ADH [2]; 50 mM substrate) was “^aThe relative activity of 100% in alcohol oxidation means 1144 ± 24 U mg^−1” and the “Relative activity (alcohol oxidation)” value (T. guaymasensis ADH [2]) was 100 ± 2.2^a %.

In the case of `CCC(C)=O` [2-Butanone], the “Relative activity (aldehyde/ketone reduction)” value (T. guaymasensis ADH [1]) is reported as 100 ± 3.4^b % and the “Stereoselectivity of the reduction (in words)” value (T. guaymasensis ADH [4]; reduction to chiral 2-butanols) is reported as “no stereoselectivity”.

For `CC(C)O` [2-Propanol], the “Relative activity (alcohol oxidation)” value (T. guaymasensis ADH [2]) was 88 ± 1.1%.

For `C[C@H](O)[C@@H](C)O` [meso-2,3-butanediol], the “Enantiomeric excess (ee) of product (3S)-acetoin” value (T. guaymasensis ADH [4]; [10]) was 88%.

With `N[C@@H](CO)C(=O)O` [L-serine] the “Oxidation of the substrate” value (T. guaymasensis ADH [2]) was “no activity; also recorded: did not catalyze”.

For `C[C@@H](O)[C@@H](C)O` [(2R,3R)-(−)-2,3-butanediol], the “Enantiomeric excess (ee) of product (3R)-acetoin” value (T. guaymasensis ADH [4]; [10]) was 94%.

B1: T. guaymasensis ADH (Thermococcus guaymasensis) (protein)
chain: SKMRGFAMVDFGKAEWIEKERPKPGPYDAIVKPIAVAPCTSDIHTVFEAAFPREMCEFPRILGHEAVGEVVEVGSHVKDFKPGDRVVVPAITPDWRTLDVQRGYHQHSGGMLAGWKFSNPLKEGGKDGVFAEYFHVNDADMNLAHLPDEIKPEVAVMATDMMTTGFHGAELADIPLGGTVAVIGIGPVGLMAVAGARLLGAGRIIAVGSRPVCVEAAKYYGATDIVNRREHPDIAGRILELTGGEGVDSVIIAGGNVDVMKTAVKIVKPGGTVANINYFGSGDYLPIPRIEWGQGMAHKTIKGGLCPGGRLRMERLLDLIKYGRVDPSRLITHKFKGFDKIPEALYLMKDKPKDLIKPVVIIEE
B1 showed a Km [5] of 210 µM, a Vmax [5] of 303 µmol/min/mg and a kcat [5] of 202 s⁻¹. It also gave a kcat/Km [5] of 962000 M⁻¹ s⁻¹, a Km [6] of 310 µM and a Vmax [6] of 285 U mg^−1. The kcat [6] was 190 s⁻¹, the kcat/Km [6] was 613,000 s^−1M^−1 and the Km [7] was 320 µM. For the same molecule, the Vmax [7] was 213 µmol/min/mg, the kcat [7] was 142 s⁻¹ and the kcat/Km [7] was 444000 M⁻¹ s⁻¹.

B2: TgADH(C56S): TgADH mutant, serine for cysteine at position 56 (SEQ ID NO:10), expressed in E. coli Rosetta-2 (protein)
chain: MHHHHHHSSGLVPRGSGMKETAAAKFERQHMDSPDLGTDDDDKAMADIGSEFMSKMRGFAMVDFGKAEWIEKERPKPGPYDAIVKPIAVAPCTSDIHTVFEAAFPREMSEFPRILGHEAVGEVVEVGSHVKDFKPGDRVVVPAITPDWRTLDVQRGYHQHSGGMLAGWKFSNPLKEGGKDGVFAEYFHVNDADMNLAHLPDEIKPEVAVMATDMMTTGFHGAELADIPLGGTVAVIGIGPVGLMAVAGARLLGAGRIIAVGSRPVCVEAAKYYGATDIVNRREHPDIAGRILELTGGEGVDSVIIAGGNVDVMKTAVKIVKPGGTVANINYFGSGDYLPIPRIEWGQGMAHKTIKGGLCPGGRLRMERLLDLIKYGRVDPSRLITHKFKGFDKIPEALYLMKDKPKDLIKPVVIIEE
modifications: C56S with vector coding region
In the case of B2, the “Activity after exposure to air (in words)” value [8] is reported as “lost activity” and the “Enzyme activity compared with wild type TgADH (in words)” value [9] is reported as “virtually no difference”.
